Experimental data published in PubChem BioAssay AID1963438 (Molecular Pharmacology Branch, DTP, NCI, 2024).
“And” between values parts separate entries of the source, which are not always exact repeats. Identical values can stand only once.

Test system: NCI-H510 multicellular tumor spheroid growth, % test/control
Experiment: Anticancer human tumor NCI-H510 cell line growth inhibition [Asc];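 further: spheroids exposed to agents for 7 days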;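 on viability, T/C: 100% = DMSO vehicle control wells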
Conditions: for viability, T/C: stronger effect = lower value; active means viability on the fitted dose curve at most 10% of control; inactive means the rest
Summary of the method: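 Complex spheroids combining tumor cells with HUVEC endothelial cells and human MSCs, at 37 degrees C, 5% CO2; agents tested alone or combined, half-log dilutions from at or near clinical Cmax, or 10 microM if Cmax unknown.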

[1] = curve of first compound, second compound 0.03 µM
[2] = curve of first compound, second compound 0.0949 µM
[3] = curve of first compound, second compound 0.3 µM
[4] = curve of first compound, second compound 0.949 µM
[5] = curve of first compound, second compound 3 µM
[6] = second compound 0.03 µM, first compound 0.0316 µM
[7] = second compound 0.03 µM, first compound 0.1 µM
[8] = second compound 0.03 µM, first compound 0.316 µM
[9] = second compound 0.03 µM, first compound 1 µM
[10] = second compound 0.0949 µM, first compound 0.0316 µM
[11] = second compound 0.0949 µM, first compound 0.1 µM
[12] = second compound 0.0949 µM, first compound 0.316 µM
[13] = second compound 0.0949 µM, first compound 1 µM
[14] = second compound 0.3 µM, first compound 0.0316 µM
[15] = second compound 0.3 µM, first compound 0.1 µM
[16] = second compound 0.3 µM, first compound 0.316 µM
[17] = second compound 0.3 µM, first compound 1 µM
[18] = second compound 0.949 µM, first compound 0.0316 µM
[19] = second compound 0.949 µM, first compound 0.1 µM
[20] = second compound 0.949 µM, first compound 0.316 µM
[21] = second compound 0.949 µM, first compound 1 µM
[22] = second compound 3 µM, first compound 0.0316 µM
[23] = second compound 3 µM, first compound 0.1 µM
[24] = second compound 3 µM, first compound 0.316 µM
[25] = second compound 3 µM, first compound 1 µM

CCN1C(C(=O)NC23CCC(C(=O)O)(CC2)CC3)C(c2cccc(Cl)c2F)C2(C(=O)Nc3cc(Cl)ccc32)C12CCCCC2 (stereo not drawn)
> 3000 nM: IC50 (compound alone, run of 10/11/2022) | IC50 (curve of compound)
inactive: viability, T/C (compound 0.00949 µM) 103% and 92.8%

Cn1ncnc1[C@H]1c2n[nH]c(=O)c3cc(F)cc(c23)N[C@@H]1c1ccc(F)cc1 + CNC(C)C(=O)NC1CN(S(=O)(=O)c2cccc(S(=O)(=O)N3CCC4CCC(C(=O)NC(c5ccccc5)c5ccccc5)N4C(=O)C(NC(=O)C(C)NC)C3)c2)CCC2CCC(C(=O)NC(c3ccccc3)c3ccccc3)N2C1=O
> 100 nM: IC50 (curve of first compound, second compound 0.01 µM) | IC50 (curve of first compound, second compound 0.0316 µM) | IC50 (curve of first compound, second compound 0.1 µM) | IC50 (curve of first compound, second compound 0.316 µM) | IC50 (curve of first compound, second compound 1 µM)
inactive: viability, T/C (second compound 0.01 µM, first compound 0.000316 µM) 102% | viability, T/C (second compound 0.01 µM, first compound 0.001 µM) 101% | viability, T/C (second compound 0.01 µM, first compound 0.00316 µM) 105% | viability, T/C (second compound 0.01 µM, first compound 0.01 µM) 104% | viability, T/C (second compound 0.01 µM, first compound 0.0316 µM) 72.2% | viability, T/C (second compound 0.01 µM, first compound 0.1 µM) 85.8% | viability, T/C (second compound 0.0316 µM, first compound 0.000316 µM) 96% | viability, T/C (second compound 0.0316 µM, first compound 0.001 µM) 102% | viability, T/C (second compound 0.0316 µM, first compound 0.00316 µM) 97% | viability, T/C (second compound 0.0316 µM, first compound 0.01 µM) 97.2% | viability, T/C (second compound 0.0316 µM, first compound 0.0316 µM) 78% | viability, T/C (second compound 0.0316 µM, first compound 0.1 µM) 98.4% | viability, T/C (second compound 0.1 µM, first compound 0.000316 µM) 110% | viability, T/C (second compound 0.1 µM, first compound 0.001 µM) 97% | viability, T/C (second compound 0.1 µM, first compound 0.00316 µM) 104% | viability, T/C (second compound 0.1 µM, first compound 0.01 µM) 98.2% | viability, T/C (second compound 0.1 µM, first compound 0.0316 µM) 72.1% | viability, T/C (second compound 0.1 µM, first compound 0.1 µM) 91.4% | viability, T/C (second compound 0.316 µM, first compound 0.000316 µM) 113% | viability, T/C (second compound 0.316 µM, first compound 0.001 µM) 108% | viability, T/C (second compound 0.316 µM, first compound 0.00316 µM) 96.6% | viability, T/C (second compound 0.316 µM, first compound 0.01 µM) 96% | viability, T/C (second compound 0.316 µM, first compound 0.0316 µM) 56.8% | viability, T/C (second compound 0.316 µM, first compound 0.1 µM) 93.6% | viability, T/C (second compound 1 µM, first compound 0.000316 µM) 110% | viability, T/C (second compound 1 µM, first compound 0.001 µM) 106% | viability, T/C (second compound 1 µM, first compound 0.00316 µM) 106% | viability, T/C (second compound 1 µM, first compound 0.01 µM) 97.5% | viability, T/C (second compound 1 µM, first compound 0.0316 µM) 92.3% | viability, T/C (second compound 1 µM, first compound 0.1 µM) 91.1%

C=CC(=O)N1CCN(c2nc(=O)n(-c3c(C)ccnc3C(C)C)c3nc(-c4c(O)cccc4F)c(F)cc23)C(C)C1 (stereo not drawn) + CCN1C(C(=O)NC23CCC(C(=O)O)(CC2)CC3)C(c2cccc(Cl)c2F)C2(C(=O)Nc3cc(Cl)ccc32)C12CCCCC2
> 10000 nM: IC50 [1] | IC50 [2] | IC50 [3] | IC50 [4] | IC50 [5]
inactive: viability, T/C [6] 70.7% | viability, T/C [7] 108% | viability, T/C [8] 81% | viability, T/C [9] 100% | viability, T/C (second compound 0.03 µM, first compound 3.16 µM) 90.2% | viability, T/C (second compound 0.03 µM, first compound 10 µM) 98.3% | viability, T/C [10] 117% | viability, T/C [11] 117% | viability, T/C [12] 98.5% | viability, T/C [13] 105% | viability, T/C (second compound 0.0949 µM, first compound 3.16 µM) 96.8% | viability, T/C (second compound 0.0949 µM, first compound 10 µM) 89.5% | viability, T/C [14] 90.3% | viability, T/C [15] 103% | viability, T/C [16] 91.5% | viability, T/C [17] 101% | viability, T/C (second compound 0.3 µM, first compound 3.16 µM) 98.4% | viability, T/C (second compound 0.3 µM, first compound 10 µM) 95.6% | viability, T/C [18] 100% | viability, T/C [19] 107% | viability, T/C [20] 109% | viability, T/C [21] 104% | viability, T/C (second compound 0.949 µM, first compound 3.16 µM) 91.3% | viability, T/C (second compound 0.949 µM, first compound 10 µM) 92.4% | viability, T/C [22] 116% | viability, T/C [23] 97.8% | viability, T/C [24] 85.3% | viability, T/C [25] 101% | viability, T/C (second compound 3 µM, first compound 3.16 µM) 103% | viability, T/C (second compound 3 µM, first compound 10 µM) 79.2%

O=C(c1ccc(F)c(F)c1Nc1ccc(I)cc1F)N1CC(O)([C@@H]2CCCCN2)C1 + CCN1C(C(=O)NC23CCC(C(=O)O)(CC2)CC3)C(c2cccc(Cl)c2F)C2(C(=O)Nc3cc(Cl)ccc32)C12CCCCC2
> 1000 nM: IC50 [1] | IC50 [2] | IC50 [3] | IC50 [4] | IC50 [5]
inactive: viability, T/C (second compound 0.03 µM, first compound 0.00316 µM) 95.8% | viability, T/C (second compound 0.03 µM, first compound 0.01 µM) 126% | viability, T/C [6] 130% | viability, T/C [7] 121% | viability, T/C [8] 103% | viability, T/C [9] 103% | viability, T/C (second compound 0.0949 µM, first compound 0.00316 µM) 127% | viability, T/C (second compound 0.0949 µM, first compound 0.01 µM) 124% | viability, T/C [10] 105% | viability, T/C [11] 95.7% | viability, T/C [12] 126% | viability, T/C [13] 116% | viability, T/C (second compound 0.3 µM, first compound 0.00316 µM) 122% | viability, T/C (second compound 0.3 µM, first compound 0.01 µM) 111% | viability, T/C [14] 120% | viability, T/C [15] 119% | viability, T/C [16] 117% | viability, T/C [17] 91.5% | viability, T/C (second compound 0.949 µM, first compound 0.00316 µM) 120% | viability, T/C (second compound 0.949 µM, first compound 0.01 µM) 132% | viability, T/C [18] 132% | viability, T/C [19] 131% | viability, T/C [20] 118% | viability, T/C [21] 116% | viability, T/C (second compound 3 µM, first compound 0.00316 µM) 134% | viability, T/C (second compound 3 µM, first compound 0.01 µM) 160% | viability, T/C [22] 140% | viability, T/C [23] 114% | viability, T/C [24] 124% | viability, T/C [25] 127%
